How the values were obtained:
Adrenergic α1A = Adrenergic α1A (Rattus norvegicus (Rat), UniProt P43140); assay: Radioligand binding assay No. 203100; details: test substance 10 μM, read-out: Inhibitory rate (%), Adrenergic α1A
Potassium Channel [KATP] = assay: Radioligand binding assay No. 265600; details: test substance 10 μM; Human
Muscarinic M1 = Muscarinic M1 (Homo sapiens (Human), UniProt P11229); assay: Radioligand binding assay No. 252610; details: test substance 10 μM, read-out: Inhibitory rate (%), Muscarinic M1
Transporter, GABA = assay: Radioligand binding assay No. 226400; details: test substance 10 μM; rat
mTOR = mTOR (Homo sapiens (Human), UniProt P42345); assay: mTOR enzymatic assay; format: biochemical; details: read-out: In vitro enzymatic activity (IC50) mTOR
Experimental: Assay 1-2: In Vitro Enzymatic Inhibitory Activity of the Present Compound
1. Preparation of Agents:
• 1.1 1-fold kinase buffer: 50 mM HEPES, pH 7.5, 10 mM MgCl2, 1 mM EGTA, 3 mM MnCl2, 0.01% Tween-20, 2 mM DTT; • 1.2 4-fold kinase solution: mTOR kinase was added to 1-fold kinase buffer to form 4-fold kinase solution with a final concentration of 2.5 nM; • 1.3 2-fold substrate and ATP solution: the substrate 4EBP1 and ATP were added to 1-fold kinase buffer to form 2-fold substrate solution with final concentration of 50 nM of 4EBP1 and 10.8 μM of ATP; • 1.4 4-fold test substance solutions: 100-fold test substance solutions in different gradient concentrations were formulated with 100% DMSO, and diluted by 25 folds with 1-fold kinase buffer to form 4-fold test substance solutions in different gradient concentrations. • 1.5 Preparation of detection solution: a detection solution containing 2-fold final concentrations of EDTA and 4EBP1 phosphorylated antibody was formulated, wherein the final concentration for EDTA was 8 mM, and the final concentration for the 4EBP phosphorylated antibody was 2 nM. 2. Procedure • 2.1 To each well of a 384-well plate was added 2.5 μL of the 4-fold test substance solutions in gradient concentrations. The replication was made. • 2.2 To each well was added 2.5 μL of 4-fold kinase solution, and then the plate was incubated for 10 mins; • 2.3 Then to each well was added 5 μL/of 2-fold substrate and ATP solution, and then the plate was incubated at room temperature for 1 hour; • 2.4 Finally, 10 μL of the detection solution was added to terminate the reaction. After 60 mins, the data Lance signal ([…]) was read from Envision. 3 Data treatment Inhibition rate (%)=[…] • wherein: • maximum refers to the reading at the DMSO control well. • minimum refers to the reading at the control well without kinase, • The data was input into Graphpad Prism 5.0 to plot and obtain the curve and IC50 value. PI3Kα Enzymatic Assay 1. […] After 15 mins, the data Lance signal ([…]) was read from Envision. 3 Data treatment Inhibition rate (%)=100−(sample value−minimum)/(maximum−minimum)×100 • wherein: • maximum refers to the reading at the control well without kinase, • minimum refers to the reading at the DMSO control well, • The data was input into Graphpad Prism 5.0 to plot and obtain the curve and IC50 value. […]

Sequence of Adrenergic α1A (P43140 whole entry): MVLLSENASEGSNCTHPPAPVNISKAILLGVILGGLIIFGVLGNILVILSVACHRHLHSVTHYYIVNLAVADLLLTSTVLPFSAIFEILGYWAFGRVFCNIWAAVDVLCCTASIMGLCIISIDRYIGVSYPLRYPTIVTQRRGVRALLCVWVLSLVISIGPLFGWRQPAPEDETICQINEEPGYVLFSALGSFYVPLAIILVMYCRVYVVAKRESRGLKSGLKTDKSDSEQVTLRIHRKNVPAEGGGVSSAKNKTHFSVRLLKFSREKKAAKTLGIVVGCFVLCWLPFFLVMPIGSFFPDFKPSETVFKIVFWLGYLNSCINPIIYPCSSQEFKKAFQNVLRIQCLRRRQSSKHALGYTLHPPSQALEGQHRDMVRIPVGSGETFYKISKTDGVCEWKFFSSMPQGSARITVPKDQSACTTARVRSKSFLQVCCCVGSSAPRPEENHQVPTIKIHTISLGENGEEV
Sequence of Muscarinic M1 (P11229 whole entry): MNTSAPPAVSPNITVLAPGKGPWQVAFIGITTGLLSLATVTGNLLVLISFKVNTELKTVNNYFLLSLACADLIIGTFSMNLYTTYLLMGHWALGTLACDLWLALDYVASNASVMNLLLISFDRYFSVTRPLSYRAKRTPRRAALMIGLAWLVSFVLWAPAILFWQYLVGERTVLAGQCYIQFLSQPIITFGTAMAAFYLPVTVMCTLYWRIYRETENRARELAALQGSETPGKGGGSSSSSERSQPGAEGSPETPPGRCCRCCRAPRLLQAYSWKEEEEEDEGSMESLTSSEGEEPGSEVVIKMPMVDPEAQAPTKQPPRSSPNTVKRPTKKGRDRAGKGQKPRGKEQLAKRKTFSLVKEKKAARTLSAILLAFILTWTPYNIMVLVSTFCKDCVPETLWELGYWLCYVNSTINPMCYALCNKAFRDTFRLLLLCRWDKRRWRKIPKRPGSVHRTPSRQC

| IC50 (mTOR) [nM] | SMILES | inhibition at 10 µM (Adrenergic α1A) [%] | Inhibitory rate (%), Potassium Channel [KATP] (Potassium Channel [KATP]) [%] | inhibition at 10 µM (Muscarinic M1) [%] | Inhibitory rate (%), Transporter, GABA (Transporter, GABA) [%] |
| --- | --- | --- | --- | --- | --- |
| – | Nc1ccc(-c2ccc3ncc4c(=O)[nH]c(=O)n(-c5cccc(C(F)(F)F)c5)c4c3n2)cn1 [Compound 5, 9-(6-aminopyridin-3-yl)-1-(3-(trifluoromethyl)phenyl)pyrimido[5,4-c][1,5]naphthyridine-2,4(1H,3H)-dione] | 13 | 11 | 18 | 12 |
| 1.12 | O=c1[nH]c(=O)n(-c2cccc(C(F)(F)F)c2)c2c1cnc1ccc(-c3cnc4[nH]ccc4c3)nc12 [Compound 30, 9-(1H-pyrrolo[2,3-b]pyridin-5-yl)-1-(3-(trifluoromethyl)phenyl)pyrimido[5,4-c][1,5]naphthyridine-2,4(1H,3H)-dione] | – | – | – | – |

— patent US9365572B2, “PI3K and/or mTOR inhibitor” (XUANZHU PHARMA CO., LTD., priority 2012, dated 2016)
